Measured values published in US20110136916A1, “6-SHOGAOL FOR USING IN A METHOD FOR THE TREATMENT OF LEUKEMIA” (China Pharmaceutical University, priority 2009, published 2011).
“Also recorded” adds a separate entry of the source. Where two headings read alike, the source gives them in different places.

Legend:
[1] = tested on: human colon carcinoma COLO 205 cells; settings: read-out: IC50 for inhibiting the growth of COLO 205 cells; cited from earlier work
[2] = cited from earlier work
[3] = tested on: melanoma SK-MEL-2 cells; settings: cited from earlier work
[4] = tested on: pulmonary carcinoma A549 cells; settings: 48 hours; read-out: IC50 for inhibiting the proliferation of A549 cells; cited from earlier work
[5] = tested on: human chronic granulocytic leukemia K562; assay: MTT anti-proliferation, K562; assay type: cell-based; settings: for IC50: K562, MTT, n = 3; for growth inhibition (activities of cells vs control): K562, 1-20 μM
Experimental: (§1) Cells in logarithmic growth phase were collected and then inoculated in 1˜2×10^4 cells/well in a 96-well plate respectively according to the sizes of cells and whether they attached to the wall, the cells were centrifuged and the supernatant was removed after growing for 24 hours, and then drug administration was carried out according to the groups as below: the drug group and the drug free group were set up for tumor cells (the concentrations ranged from 1˜20 μM), 5 or 6 duplicates were set for each group and the cells were incubated for 24 or 72 hours. The supernatant was removed and 100 μl serum free culture solution containing 0.5 mg/ml MTT (tetrazolium) was added for further incubation for 4 hours, subsequently 100 μl DMSO (dimethyl sulfoxide) was added and the plate was kept on the micro-shaker for 10 minutes, and the OD value was determined on a micro-plate reader at the wavelength of 570 nm. Evaluations on the toxicity were carried out on normal human cell line LO-2 and each test was repeated for three times.

[6] = tested on: human acute T cell leukemic cell Jurkat; assay: MTT anti-proliferation, Jurkat; assay type: cell-based; settings: for growth inhibition (activities of cells vs control): 1-20 μM; for IC50: MTT
Experimental: as §1

[7] = tested on: colon carcinoma HCT15 cells; settings: cited from earlier work
[8] = tested on: human acute myelocytic leukemia cell U937; assay: MTT anti-proliferation, U937; assay type: cell-based; settings: for IC50: U937, MTT, n = 3; for growth inhibition (activities of cells vs control): U937, 1-20 μM
Experimental: as §1

[9] = tested on: peripheral blood lymphocytes (PBMC) of healthy volunteers; assay: Annexin V/PI apoptosis of PBMC from healthy volunteers; assay type: cell-based, human; settings: 24 hours
Experimental: After application by the research group and approval by the Ethics Committee of the hospital, the leukemia patients (healthy volunteers) signed the informed consent and their fresh blood was collected and transferred into heparin anticoagulation tubes, then the same volume of serum free D-Hank buffer (preheated at 37° C.) was added to re-suspend the cells, and the suspension was added to the pre-laid human lymphocyte separating medium (preheated at 37° C.), and the volume ratio between the lymphocyte separating medium and the cell suspension should be no lower than 1:1, and the mixture was centrifuged at room temperature (20-30° C.) at 500×g by a horizontal centrifuge for 30 minutes. The upper layer plasma was removed and the white fog layer in the middle was carefully collected and transferred to 5 mL (or 1-2 times of the volume) PBS (or serum free buffer for cell culture), then it was centrifuged at 200×g or 1000 rpm for 10 minutes at room temperature (20-30° C.), and the supernatant was removed, and the obtained precipitation was the peripheral blood lymphocytes (PBMC). The cells were rinsed twice according to the above-mentioned operations at 500×g by the horizontal centrifuge for 10 minutes at room temperature (20-30° C.), subsequently the cells were collected and their cell vitality was detected by using dye exclusion method for living cells (Trypan blue).
The cells were added to a 24-well plate in 3×10^5 cells/mL/well and different concentrations of 6-shogaol (10 and 20 μM) for treatment for 24 hours after they were incubated for 24 hours. Negative control group (the group without drug) and the treatment group with 6-shogaol were set up for PBMCs from different individuals respectively. After the cells were treated with 6-shogaol for 24 hours, they were transferred into 10 mL glass centrifuge tubes and centrifuged at 500 rpm (or 100×g) for 5 minutes to remove the supernatant. The cells were then rinsed with 0.01 M PBS at 500 rpm (or 100×g) for 5 minutes twice. Subsequently, after adding binding solution and staining according to the directions for use of Annexin V/PI double staining kit (BD Company), flow cytometry analysis (Becton Dickinson FACScan Flow Cytometer) was carried out. The FACS data were analyzed by professional operators of the flow cytometer by using FLOWJO software (Tree Star, Calif.) software, the apoptotic rate was counted by the sum of early apoptosis and late apoptosis, and the results were shown in Table 4 and Table 5.

[10] = tested on: human promyelocytic leukemia cell HL-60; assay: MTT anti-proliferation, HL-60; assay type: cell-based; settings: for growth inhibition (activities of cells vs control): HL-60, 1-20 μM; for IC50: HL-60, MTT, n = 3
Experimental: as §1

[11] = tested on: normal human cell line LO-2; assay: MTT toxicity evaluation on normal cell line LO-2; assay type: cell-based; settings: for growth inhibition of normal hepatic cell line LO-2: LO-2, 1-20 μM
Experimental: as §1

[12] = tested on: ddY line mice; settings: cited from earlier work
[13] = 24 hours, read-out: Mean IC50 after 24 hours
[14] = 72 hours, read-out: Mean IC50 after 72 hours

For `CCCCC/C=C/C(=O)CCc1ccc(O)c(OC)c1` [6-shogaol], the IC50 [1] is given as greater than 60 µM, the solubility in ethanol ([2]; ethanol) is given as “soluble” and the solubility in water ([2]; water) is given as “insoluble”. The anti-tumor activities [3] was “certain anti-tumor activities”, the IC50 [4] was roughly 60 µM and the IC50 ([5]; Homo sapiens, K562, 24 h, 24 hours, read-out: Mean IC50 after 24 hours) was less than 10 µM. The IC50 ([5]; Homo sapiens, K562, 72 h, 72 hours, read-out: Mean IC50 after 72 hours) was less than 5 µM, the “growth inhibition (activities of cells vs control)” value ([5]; 24 hours, FIG. 5) was “significantly decreased” and the “growth inhibition (activities of cells vs control)” value ([5]; 72 hours, FIG. 9) was “significantly decreased”. For the same molecule, the IC50 [5, 13] was 8.5 ± 0.8 µM, the IC50 [5, 14] was 5 ± 0.62 µM and the “growth inhibition (activities of cells vs control)” value ([6]; 24 hours, FIG. 3) was “significantly decreased”. For the same molecule, the “growth inhibition (activities of cells vs control)” value ([6]; 72 hours, FIG. 7) was “significantly decreased”, the IC50 ([6]; Homo sapiens, 24 h, 24 hours, n = 3, read-out: Mean IC50 after 24 hours) was less than 10 µM and the IC50 ([6]; Homo sapiens, 72 h, 72 hours, n = 3, read-out: Mean IC50 after 72 hours) was less than 5 µM. For the same molecule, the IC50 ([6]; 24 hours, n = 3, read-out: Mean IC50 after 24 hours) was 5.6 ± 0.4 µM, the IC50 ([6]; 72 hours, n = 3, read-out: Mean IC50 after 72 hours) was 3.3 ± 0.3 µM and the anti-tumor activities [7] was “certain anti-tumor activities”. The IC50 ([8]; Homo sapiens, U-937, 24 h, 24 hours, read-out: Mean IC50 after 24 hours) was less than 10 µM, the IC50 ([8]; Homo sapiens, U-937, 72 h, 72 hours, read-out: Mean IC50 after 72 hours) was less than 5 µM and the “growth inhibition (activities of cells vs control)” value ([8]; 24 hours, FIG. 4) was “significantly decreased”. The “growth inhibition (activities of cells vs control)” value ([8]; 72 hours, FIG. 8) was “significantly decreased”, the IC50 [8, 13] was 7.63 ± 0.47 µM and the IC50 [8, 14] was 4.93 ± 0.7 µM. The “effect on apoptosis of PBMC of healthy volunteers (t-test)” value ([9]; 10 cases of healthy volunteers, 10 and 20 μM) was “no significant difference; also recorded: no significant effects”, the “Apoptotic rate of 10 μM 6-shogaol” value ([9]; PBMC of healthy volunteer N1, 10 μM) was 17.5 ± 0.8% and the “Apoptotic rate of 20 μM 6-shogaol” value ([9]; PBMC of healthy volunteer N1, 20 μM) was 22.8 ± 0.6%. The “Apoptotic rate of 10 μM 6-shogaol” value ([9]; PBMC of healthy volunteer N2, 10 μM) was 13.6 ± 0.9%, the “Apoptotic rate of 20 μM 6-shogaol” value ([9]; PBMC of healthy volunteer N2, 20 μM) was 12.3 ± 1.4% and the “Apoptotic rate of 10 μM 6-shogaol” value ([9]; PBMC of healthy volunteer N3, 10 μM) was 27.6 ± 2.4%. The “Apoptotic rate of 20 μM 6-shogaol” value ([9]; PBMC of healthy volunteer N3, 20 μM) was 31.9 ± 1.7%, the “Apoptotic rate of 10 μM 6-shogaol” value ([9]; PBMC of healthy volunteer N4, 10 μM) was 8.5 ± 0.8% and the “Apoptotic rate of 20 μM 6-shogaol” value ([9]; PBMC of healthy volunteer N4, 20 μM) was 9.7 ± 1.2%. The “Apoptotic rate of 10 μM 6-shogaol” value ([9]; PBMC of healthy volunteer N5, 10 μM) was 16.6 ± 4.8%, the “Apoptotic rate of 20 μM 6-shogaol” value ([9]; PBMC of healthy volunteer N5, 20 μM) was 12.8 ± 3.6% and the “Apoptotic rate of 10 μM 6-shogaol” value ([9]; PBMC of healthy volunteer N6, 10 μM) was 14.6 ± 0.9%. For the same molecule, the “Apoptotic rate of 20 μM 6-shogaol” value ([9]; PBMC of healthy volunteer N6, 20 μM) was 12.3 ± 1.4%, the “Apoptotic rate of 10 μM 6-shogaol” value ([9]; PBMC of healthy volunteer N7, 10 μM) was 14.6 ± 1.4% and the “Apoptotic rate of 20 μM 6-shogaol” value ([9]; PBMC of healthy volunteer N7, 20 μM) was 15.9 ± 0.7%. The “Apoptotic rate of 10 μM 6-shogaol” value ([9]; PBMC of healthy volunteer N8, 10 μM) was 18.5 ± 1.8%, the “Apoptotic rate of 20 μM 6-shogaol” value ([9]; PBMC of healthy volunteer N8, 20 μM) was 21.7 ± 1.6% and the “Apoptotic rate of 10 μM 6-shogaol” value ([9]; PBMC of healthy volunteer N9, 10 μM) was 12.5 ± 2.9%. For the same molecule, the “Apoptotic rate of 20 μM 6-shogaol” value ([9]; PBMC of healthy volunteer N9, 20 μM) was 14.8 ± 0.9%, the “Apoptotic rate of 10 μM 6-shogaol” value ([9]; PBMC of healthy volunteer N10, 10 μM) was 12.9 ± 1.3% and the “Apoptotic rate of 20 μM 6-shogaol” value ([9]; PBMC of healthy volunteer N10, 20 μM) was 16.5 ± 0.7%. The “growth inhibition (activities of cells vs control)” value ([10]; 24 hours, FIG. 2) was “significantly decreased”, the “growth inhibition (activities of cells vs control)” value ([10]; 72 hours, FIG. 6) was “significantly decreased” and the IC50 [10, 13] was 6.93 ± 1.28 µM. It also gave an IC50 [10, 14] of 3.7 ± 0.25 µM, an IC50 ([10]; Homo sapiens, HL-60, 24 h, 24 hours, read-out: Mean IC50 after 24 hours) of less than 10 µM and an IC50 ([10]; Homo sapiens, HL-60, 72 h, 72 hours, read-out: Mean IC50 after 72 hours) of less than 5 µM. The “growth inhibition of normal hepatic cell line LO-2” value ([11]; 24 hours) was “didn't inhibit the proliferation”, the “growth inhibition of normal hepatic cell line LO-2” value ([11]; 72 hours) was “didn't inhibit the proliferation” and the “toxicity on normal hepatic cells LO-2” value ([11]; summary statement) was “No toxic reaction was found; also recorded: low toxicity”. The LD50 ([12]; intraperitoneal injection) was “about 109.2 mg/kg”, the LD50 ([12]; intravenous injection) was “about 50.9 mg/kg” and the LD50 ([12]; oral administration) was 687 mg/kg.
